Patent US11174251B2, “Compositions and methods for inhibition of the JAK pathway” (Rigel Pharmaceuticals, Inc., priority 2010, dated 2021)
Structures can show the parent of a compound that is named as a salt.

target: T1, JAK3 (Homo sapiens, UniProt P52333); assay: Assay for CD23 expression on Ramos B-cells stimulated by IL-4 (Table IV: ability to inhibit JAK3 activity); type: cell-based; conditions: tested under conditions described in Example 3 (so in the source)
T1 construct: The Ramos B-cell line was acquired from ATCC (ATCC Catalog No. CRL-1596); host or cells: Ramos B-cell line (human)
T1 sequence (P52333 1-1124): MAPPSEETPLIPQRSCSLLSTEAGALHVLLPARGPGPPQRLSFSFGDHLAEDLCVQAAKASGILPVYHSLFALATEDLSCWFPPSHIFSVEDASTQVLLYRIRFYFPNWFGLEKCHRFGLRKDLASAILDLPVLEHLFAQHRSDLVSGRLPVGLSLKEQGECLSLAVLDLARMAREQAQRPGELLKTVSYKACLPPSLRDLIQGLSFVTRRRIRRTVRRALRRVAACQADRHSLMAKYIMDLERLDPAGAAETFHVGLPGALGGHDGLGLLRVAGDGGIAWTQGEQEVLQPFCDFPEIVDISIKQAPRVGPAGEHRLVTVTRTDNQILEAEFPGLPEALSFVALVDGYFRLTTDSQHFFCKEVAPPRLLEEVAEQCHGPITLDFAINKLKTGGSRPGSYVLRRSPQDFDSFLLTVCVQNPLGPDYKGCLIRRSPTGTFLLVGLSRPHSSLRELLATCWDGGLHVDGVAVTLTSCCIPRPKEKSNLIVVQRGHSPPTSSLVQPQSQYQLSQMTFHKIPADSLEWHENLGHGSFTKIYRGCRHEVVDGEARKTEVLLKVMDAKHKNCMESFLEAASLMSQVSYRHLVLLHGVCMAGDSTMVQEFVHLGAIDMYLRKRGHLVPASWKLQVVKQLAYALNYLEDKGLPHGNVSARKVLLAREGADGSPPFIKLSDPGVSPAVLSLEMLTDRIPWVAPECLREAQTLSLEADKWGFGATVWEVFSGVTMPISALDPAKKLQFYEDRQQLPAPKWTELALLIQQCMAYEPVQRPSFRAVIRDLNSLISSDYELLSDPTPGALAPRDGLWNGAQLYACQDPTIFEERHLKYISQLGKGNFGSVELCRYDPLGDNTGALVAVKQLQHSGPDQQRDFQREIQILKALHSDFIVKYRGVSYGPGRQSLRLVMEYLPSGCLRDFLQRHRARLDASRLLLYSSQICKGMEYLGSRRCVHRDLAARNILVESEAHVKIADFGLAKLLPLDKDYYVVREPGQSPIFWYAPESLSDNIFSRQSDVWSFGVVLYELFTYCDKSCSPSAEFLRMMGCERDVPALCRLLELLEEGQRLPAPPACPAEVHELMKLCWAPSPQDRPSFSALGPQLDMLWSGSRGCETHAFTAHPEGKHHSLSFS
In short: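 Human Ramos B cells in RPMI with 5% serum, pre-incubated 1 h at 37 °C with compound or DMSO, then stimulated with IL-4 (final 50 units/mL) for 20–24 h. Surface CD23 upregulation measured by FACS staining as readout of JAK1/JAK3–Stat-6 signalling.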

IC50	SMILES
500 to 5000 nM	Cc1cnc(Nc2cc(C)c(C)c(C)c2)nc1Nc1cc(CN(C)C)c2oc(=O)[nH]c2c1 [Compound I-89, 5-(2-(3,4,5-trimethylphenylamino)-5-methylpyrimidin-4-ylamino)-7-((dimethylamino)methyl)benzo[d]oxazol-2(3H)-one ditrifluoroacetate salt]
500 to 5000 nM	CCN(CC)Cc1cc(Nc2nc(Nc3cc(C)c(C)c(C)c3)ncc2C)cc2[nH]c(=O)oc12 [Compound I-90, 7-((diethylamino)methyl)-5-(2-(3,4,5-trimethylphenylamino)-5-methylpyrimidin-4-ylamino)benzo[d]oxazol-2(3H)-one ditrifluoroacetate salt]
500 to 5000 nM	Cc1cnc(Nc2cc(C)c(C)c(C)c2)nc1Nc1cc(CN2CCCC2)c2oc(=O)[nH]c2c1 [Compound I-91, 5-(2-(3,4,5-trimethylphenylamino)-5-methylpyrimidin-4-ylamino)-7-((pyrrolidin-1-yl)methyl)benzo[d]oxazol-2(3H)-one]
500 to 5000 nM	Cc1cnc(Nc2cc(C)c(C)c(C)c2)nc1Nc1cc(CN2CCN(C)CC2)c2oc(=O)[nH]c2c1 [Compound I-93, 5-(2-(3,4,5-trimethylphenylamino)-5-methylpyrimidin-4-ylamino)-7-((4-methylpiperazin-1-yl)methyl)benzo[d]oxazol-2(3H)-one]
5000 to 10000 nM	Cc1cnc(Nc2cc(C)c(C)c(C)c2)nc1Nc1cc(CN2CCN(C(=O)OC(C)(C)C)CC2)c2oc(=O)[nH]c2c1 [Compound I-94, tert-butyl 4-((5-(2-(3,4,5-trimethylphenylamino)-5-methylpyrimidin-4-ylamino)-2,3-dihydro-2-oxobenzo[d]oxazol-7-yl)methyl)piperazine-1-carboxylate]
5000 to 10000 nM	Cc1cnc(Nc2cc(C)c(C)c(C)c2)nc1Nc1cc(CN2CCNCC2)c2oc(=O)[nH]c2c1 [Compound I-95, 5-(2-(3,4,5-trimethylphenylamino)-5-methylpyrimidin-4-ylamino)-7-((piperazin-1-yl)methyl)benzo[d]oxazol-2(3H)-one ditrifluoroacetate salt]
500 to 5000 nM	Cc1cnc(Nc2cc(C)c(C)c(C)c2)nc1Nc1cc(/C=C/CCl)c2oc(=O)[nH]c2c1 [Compound I-96, 5-(2-(3,4,5-trimethylphenylamino)-5-methylpyrimidin-4-ylamino)-7-((E)-3-chloroprop-1-enyl)benzo[d]oxazol-2(3H)-one]
500 to 5000 nM	CCN(CC)Cc1cnc(Nc2cc(C)c(C)c(C)c2)nc1Nc1ccc2oc(=O)[nH]c2c1 [Compound I-97, 5-(5-((diethylamino)methyl)-2-(3,4,5-trimethylphenylamino)pyrimidin-4-ylamino)benzo[d]oxazol-2(3H)-one ditrifluoroacetate salt]
5000 to 10000 nM	Cc1cc(Nc2ncc(CN3CCCC3)c(Nc3ccc4oc(=O)[nH]c4c3)n2)cc(C)c1C [Compound I-98, 5-(2-(3,4,5-trimethylphenylamino)-5-((pyrrolidin-1-yl)methyl)pyrimidin-4-ylamino)benzo[d]oxazol-2(3H)-one]
> 10000 nM	Cc1cc(Nc2ncc(CN3CCCCC3)c(Nc3ccc4oc(=O)[nH]c4c3)n2)cc(C)c1C [Compound I-99, 5-(2-(3,4,5-trimethylphenylamino)-5-((piperidin-1-yl)methyl)pyrimidin-4-ylamino)benzo[d]oxazol-2(3H)-one]
500 to 5000 nM	Cc1cc(Nc2ncc(CN3CCN(C)CC3)c(Nc3ccc4oc(=O)[nH]c4c3)n2)cc(C)c1C [Compound I-100, 5-(2-(3,4,5-trimethylphenylamino)-5-((4-methylpiperazin-1-yl)methyl)pyrimidin-4-ylamino)benzo[d]oxazol-2(3H)-one]
< 500 nM	CCOc1ccc(Nc2ncc(C)c(Nc3ccc4oc(=O)[nH]c4c3)n2)c(F)c1OCC [Compound I-101, 5-(2-(3,4-diethoxy-2-fluorophenylamino)-5-methylpyrimidin-4-ylamino)benzo[d]oxazol-2(3H)-one]
< 500 nM	COc1ccc(Nc2ncc(C)c(Nc3ccc4oc(=O)[nH]c4c3)n2)c(F)c1OC [Compound I-102, 5-(2-(2-fluoro-3,4-d6-dimethoxyphenylamino)-5-methylpyrimidin-4-ylamino)benzo[d]oxazol-2(3H)-one]
< 500 nM	CCOc1cc(Nc2ncc(C)c(Nc3ccc4oc(=O)[nH]c4c3)n2)cc(C)c1C [Compound I-103, 5-(2-(3-ethoxy-4,5-dimethylphenylamino)-5-methylpyrimidin-4-ylamino)benzo[d]oxazol-2(3H)-one ditrifluoroacetate salt]
< 500 nM	CCOc1cc(Nc2ncc(Cl)c(Nc3ccc4oc(=O)[nH]c4c3)n2)cc(C)c1C [Compound I-104, 5-(5-chloro-2-(3-ethoxy-4,5-dimethylphenylamino)pyrimidin-4-ylamino)benzo[d]oxazol-2(3H)-one ditrifluoroacetate salt]
< 500 nM	COc1cc(Nc2ncc(C)c(Nc3ccc4oc(=O)[nH]c4c3)n2)cc(C)c1F [Compound I-105, 5-(2-(4-fluoro-3-methoxy-5-methylphenylamino)-5-methylpyrimidin-4-ylamino)benzo[d]oxazol-2(3H)-one]
< 500 nM	COc1cc(Nc2ncc(C)c(Nc3cc(C)c4oc(=O)[nH]c4c3)n2)cc(C)c1C [Compound I-109, 5-(2-(3-methoxy-4,5-dimethylphenylamino)-5-methylpyrimidin-4-ylamino)-7-methylbenzo[d]oxazol-2(3H)-one trifluoroacetate trifluoroacetate salt]
< 500 nM	COc1cc(Nc2ncc(F)c(Nc3cc(C)c4oc(=O)[nH]c4c3)n2)cc(C)c1C [Compound I-110, 5-(5-fluoro-2-(3-methoxy-4,5-dimethylphenylamino)pyrimidin-4-ylamino)-7-methylbenzo[d]oxazol-2(3H)-one trifluoroacetate salt]
< 500 nM	COc1cc(Nc2ncc(C)c(Nc3cc(F)c4oc(=O)[nH]c4c3)n2)cc(C)c1C [Compound I-111, 5-(2-(3-methoxy-4,5-dimethylphenylamino)-5-methylpyrimidin-4-ylamino)-7-fluorobenzo[d]oxazol-2(3H)-one trifluoroacetate trifluoroacetate salt]
< 500 nM	COc1cc(Nc2ncc(F)c(Nc3cc(F)c4oc(=O)[nH]c4c3)n2)cc(C)c1C [Compound I-112, 7-fluoro-5-(5-fluoro-2-(3-methoxy-4,5-dimethylphenylamino)pyrimidin-4-ylamino)benzo[d]oxazol-2(3H)-one trifluoroacetate salt]
500 to 5000 nM	COc1cc(Nc2ncc(C)c(Nc3ccc4oc(=O)n(COP(=O)(O)O)c4c3)n2)cc(C)c1C [Compound I-115, Disodium (5-(2-(3-methoxy-4,5-dimethylphenylamino)-5-methylpyrimidin-4-ylamino)-2-oxobenzo[d]oxazol-3(2H)-yl)methyl phosphate]
5000 to 10000 nM	COc1ccc(F)c(Nc2ncc(F)c(Nc3ccc4oc(=O)[nH]c4c3)n2)c1 [Compound I-119, 5-(5-fluoro-2-(2-fluoro-5-methoxyphenylamino)pyrimidin-4-ylamino)benzo[d]oxazol-2(3H)-one]
< 500 nM	COc1cc(Nc2ncc(C)c(Nc3ccc4oc(=O)[nH]c4c3)n2)cc(F)c1C [Compound I-120, 5-(2-(3-fluoro-5-methoxy-4-methylphenylamino)-5-methylpyrimidin-4-ylamino)benzo[d]oxazol-2(3H)-one trifluoroacetate salt]
< 500 nM	COc1cc(Nc2ncc(F)c(Nc3ccc4oc(=O)[nH]c4c3)n2)cc(F)c1C [Compound I-121, 5-(5-fluoro-2-(3-fluoro-5-methoxy-4-methylphenylamino)pyrimidin-4-ylamino)benzo[d]oxazol-2(3H)-one trifluoroacetate salt]
500 to 5000 nM	COc1cc(Nc2ncc(C)c(Nc3ccc4oc(=O)[nH]c4c3)n2)c(F)cc1C [Compound I-122, 5-(2-(2-fluoro-5-methoxy-4-methylphenylamino)-5-methylpyrimidin-4-ylamino)benzo[d]oxazol-2(3H)-one trifluoroacetate salt]
5000 to 10000 nM	COc1cc(Nc2ncc(F)c(Nc3ccc4oc(=O)[nH]c4c3)n2)c(F)cc1C [Compound I-123, 5-(5-fluoro-2-(2-fluoro-5-methoxy-4-methylphenylamino)pyrimidin-4-ylamino)benzo[d]oxazol-2(3H)-one trifluoroacetate salt]
